# From ChEMBL document CHEMBL1201862, “PubChem BioAssay data set” (2004)
#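 Five concentrations, 48 hours, 96-well plates. The concentration for 50% growth inhibition is given as GI50.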 Calls of active or inactive are those of the source. Cut-off read from the data, not from the text of the source: active = GI50 up to about 1.1 µM and inactive = higher.
# What was measured:
# Assay in all cases: NCI tumour cell line growth inhibition, 48 h
# SK-MEL-28 = test system: SK-MEL-28
# NCI/ADR-RES = test system: NCI/ADR-RES
# RPMI-8226 = test system: RPMI-8226
# ACHN = test system: ACHN
# UACC-257 = test system: UACC-257
# EKVX = test system: EKVX
# M14 = test system: M14
# UACC-62 = test system: UACC-62
# HCT-15 = test system: HCT-15
# HCC 2998 = test system: HCC 2998
# UO-31 = test system: UO-31
# COLO 205 = test system: COLO 205
# SW-620 = test system: SW-620
# A549 = test system: A549
# IGROV-1 = test system: IGROV-1
# PC-3 = test system: PC-3
# SNB-19 = test system: SNB-19
# CAKI-1 = test system: CAKI-1
# HL-60 = test system: HL-60
# SN12C = test system: SN12C
# HT-29 = test system: HT-29
# SNB-75 = test system: SNB-75
# OVCAR-5 = test system: OVCAR-5
# U-251 = test system: U-251
# OVCAR-8 = test system: OVCAR-8
# OVCAR-3 = test system: OVCAR-3
# SF-268 = test system: SF-268
# K562 = test system: K562
# MDA-MB-231 = test system: MDA-MB-231
# NCI-H226 = test system: NCI-H226
# RXF 393 = test system: RXF 393
# KM12 = test system: KM12
# MOLT-4 = test system: MOLT-4
# HOP-62 = test system: HOP-62
# BT-549 = test system: BT-549
# CCRF-CEM = test system: CCRF-CEM
# T47D = test system: T47D
# NCI-H23 = test system: NCI-H23
# SK-OV-3 = test system: SK-OV-3
# Hs-578T = test system: Hs-578T
# OVCAR-4 = test system: OVCAR-4
# TK-10 = test system: TK-10
# DU-145 = test system: DU-145
# HOP-92 = test system: HOP-92
# MDA-N = test system: MDA-N
# A498 = test system: A498
# SF-539 = test system: SF-539
# SR = test system: SR
# SF-295 = test system: SF-295
# LOX IMVI = test system: LOX IMVI
# HCT-116 = test system: HCT-116
# MDA-MB-435 = test system: MDA-MB-435
# NCI-H460 = test system: NCI-H460
# 786-0 = test system: 786-0
# SK-MEL-2 = test system: SK-MEL-2
# Malme-3M = test system: Malme-3M
# NCI-H522 = test system: NCI-H522
# SK-MEL-5 = test system: SK-MEL-5
# MCF7 = test system: MCF7
smiles,measurement,setting,value
Cc1ccc2c(c1)C(=C(C#N)C#N)CCCS2(=O)=O,GI50,SK-MEL-28,> 100 µM (inactive)
same,GI50,NCI/ADR-RES,> 100 µM (inactive)
same,GI50,RPMI-8226,> 100 µM (inactive)
same,GI50,ACHN,> 100 µM (inactive)
same,GI50,UACC-257,> 100 µM (inactive)
same,GI50,EKVX,> 100 µM (inactive)
same,GI50,M14,> 100 µM (inactive)
same,GI50,UACC-62,> 100 µM (inactive)
same,GI50,HCT-15,> 100 µM
same,GI50,HCC 2998,> 100 µM (inactive)
same,GI50,UO-31,> 100 µM (inactive)
same,GI50,COLO 205,> 100 µM (inactive)
same,GI50,SW-620,> 100 µM (inactive)
same,GI50,A549,> 100 µM (inactive)
same,GI50,IGROV-1,> 100 µM (inactive)
same,GI50,PC-3,> 100 µM (inactive)
same,GI50,SNB-19,> 100 µM (inactive)
same,GI50,CAKI-1,> 100 µM (inactive)
same,GI50,HL-60,> 100 µM (inactive)
same,GI50,SN12C,> 100 µM (inactive)
same,GI50,HT-29,> 100 µM (inactive)
same,GI50,SNB-75,> 100 µM (inactive)
same,GI50,OVCAR-5,> 100 µM (inactive)
same,GI50,U-251,> 100 µM (inactive)
same,GI50,OVCAR-8,> 100 µM (inactive)
same,GI50,OVCAR-3,> 100 µM (inactive)
same,GI50,SF-268,> 100 µM (inactive)
same,GI50,K562,> 100 µM (inactive)
same,GI50,MDA-MB-231,> 100 µM (inactive)
same,GI50,NCI-H226,> 100 µM (inactive)
same,GI50,RXF 393,> 100 µM (inactive)
same,GI50,KM12,> 100 µM (inactive)
same,GI50,MOLT-4,> 100 µM (inactive)
same,GI50,HOP-62,> 100 µM (inactive)
same,GI50,BT-549,> 100 µM (inactive)
same,GI50,CCRF-CEM,> 100 µM (inactive)
same,GI50,T47D,> 100 µM (inactive)
same,GI50,NCI-H23,> 100 µM (inactive)
same,GI50,SK-OV-3,> 100 µM (inactive)
same,GI50,Hs-578T,> 100 µM (inactive)
same,GI50,OVCAR-4,> 100 µM (inactive)
same,GI50,TK-10,> 100 µM (inactive)
same,GI50,DU-145,> 100 µM (inactive)
same,GI50,HOP-92,> 100 µM (inactive)
same,GI50,MDA-N,> 100 µM (inactive)
same,GI50,A498,> 100 µM (inactive)
same,GI50,SF-539,> 100 µM (inactive)
same,GI50,SR,> 100 µM (inactive)
same,GI50,SF-295,> 100 µM (inactive)
same,GI50,LOX IMVI,> 100 µM (inactive)
same,GI50,HCT-116,> 100 µM (inactive)
same,GI50,MDA-MB-435,> 100 µM (inactive)
same,GI50,NCI-H460,> 100 µM (inactive)
same,GI50,786-0,> 100 µM (inactive)
same,GI50,SK-MEL-2,> 100 µM (inactive)
NC(Cc1ccc(S(=O)(=O)O)cc1)C(=O)NC(CCCCNC(=O)NCCCCC(NC(=O)C(N)Cc1ccc(S(=O)(=O)O)cc1)C(=O)NC(Cc1ccc(S(=O)(=O)O)cc1)C(=O)O)C(=O)NC(Cc1ccc(S(=O)(=O)O)cc1)C(=O)O (stereo unspecified),GI50,SK-MEL-28,> 100 µM (inactive)
same,GI50,NCI/ADR-RES,> 100 µM (inactive)
same,GI50,RPMI-8226,> 100 µM (inactive)
same,GI50,ACHN,> 100 µM (inactive)
same,GI50,UACC-257,> 100 µM (inactive)
same,GI50,EKVX,> 100 µM (inactive)
same,GI50,M14,> 100 µM (inactive)
same,GI50,UACC-62,> 100 µM (inactive)
same,GI50,HCT-15,> 100 µM
same,GI50,HCC 2998,> 100 µM (inactive)
same,GI50,UO-31,> 100 µM (inactive)
same,GI50,COLO 205,> 100 µM (inactive)
same,GI50,SW-620,> 100 µM (inactive)
same,GI50,A549,> 100 µM (inactive)
same,GI50,IGROV-1,> 100 µM (inactive)
same,GI50,PC-3,> 100 µM (inactive)
same,GI50,Malme-3M,> 100 µM (inactive)
same,GI50,CAKI-1,> 100 µM (inactive)
same,GI50,HL-60,> 100 µM (inactive)
same,GI50,SN12C,> 100 µM (inactive)
same,GI50,HT-29,> 100 µM (inactive)
same,GI50,NCI-H522,> 100 µM (inactive)
same,GI50,SNB-75,> 100 µM (inactive)
same,GI50,OVCAR-5,> 100 µM (inactive)
same,GI50,U-251,> 100 µM (inactive)
same,GI50,OVCAR-8,> 100 µM (inactive)
same,GI50,OVCAR-3,> 100 µM (inactive)
same,GI50,SF-268,> 100 µM (inactive)
same,GI50,K562,> 100 µM (inactive)
same,GI50,MDA-MB-231,> 100 µM (inactive)
same,GI50,NCI-H226,> 100 µM (inactive)
same,GI50,RXF 393,> 100 µM (inactive)
same,GI50,KM12,> 100 µM (inactive)
same,GI50,MOLT-4,> 100 µM (inactive)
same,GI50,HOP-62,> 100 µM (inactive)
same,GI50,BT-549,> 100 µM (inactive)
same,GI50,CCRF-CEM,> 100 µM (inactive)
same,GI50,T47D,> 100 µM (inactive)
same,GI50,SK-MEL-5,> 100 µM (inactive)
same,GI50,NCI-H23,> 100 µM (inactive)
same,GI50,SK-OV-3,> 100 µM (inactive)
same,GI50,Hs-578T,> 100 µM (inactive)
same,GI50,OVCAR-4,> 100 µM (inactive)
same,GI50,TK-10,> 100 µM (inactive)
same,GI50,DU-145,> 100 µM (inactive)
same,GI50,MDA-N,> 100 µM (inactive)
same,GI50,A498,> 100 µM (inactive)
same,GI50,SF-539,> 100 µM (inactive)
same,GI50,SF-295,> 100 µM (inactive)
same,GI50,LOX IMVI,> 100 µM (inactive)
same,GI50,HCT-116,> 100 µM (inactive)
same,GI50,MDA-MB-435,> 100 µM (inactive)
same,GI50,MCF7,69.5 µM (inactive)
same,GI50,NCI-H460,> 100 µM (inactive)
same,GI50,786-0,> 100 µM (inactive)
same,GI50,SK-MEL-2,> 100 µM (inactive)
